Source: ChEMBL document CHEMBL1201862, “PubChem BioAssay data set” (2004)
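Compound exposure: 48 hours, 5 concentrations, 96-well plates. GI50: concentration for 50% inhibition of growth.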 Active and inactive are the calls of the source. Cut-off read from the data, not from the text of the source: active = GI50 up to about 1.1 µM and inactive = higher.

How the values were obtained:
Assay in all cases: DTP human tumour cell line panel, 48 h
SW-620 = test system: SW-620
UACC-257 = test system: UACC-257
UACC-62 = test system: UACC-62
SF-295 = test system: SF-295
MDA-N = test system: MDA-N
HCT-15 = test system: HCT-15
RXF 393 = test system: RXF 393
NCI-H226 = test system: NCI-H226
NCI-H23 = test system: NCI-H23
LOX IMVI = test system: LOX IMVI
A549 = test system: A549
OVCAR-5 = test system: OVCAR-5
HCT-116 = test system: HCT-116
SK-MEL-5 = test system: SK-MEL-5
MDA-MB-435 = test system: MDA-MB-435
SF-268 = test system: SF-268
SK-MEL-2 = test system: SK-MEL-2
OVCAR-8 = test system: OVCAR-8
T47D = test system: T47D
NCI-H522 = test system: NCI-H522
SNB-75 = test system: SNB-75
NCI-H460 = test system: NCI-H460
CAKI-1 = test system: CAKI-1
SK-OV-3 = test system: SK-OV-3
ACHN = test system: ACHN
BT-549 = test system: BT-549
RPMI-8226 = test system: RPMI-8226
Malme-3M = test system: Malme-3M
A498 = test system: A498
HOP-62 = test system: HOP-62
K562 = test system: K562
SN12C = test system: SN12C
TK-10 = test system: TK-10
COLO 205 = test system: COLO 205
MDA-MB-231 = test system: MDA-MB-231
M14 = test system: M14
U-251 = test system: U-251
CCRF-CEM = test system: CCRF-CEM
MOLT-4 = test system: MOLT-4
HCC 2998 = test system: HCC 2998
HT-29 = test system: HT-29
HOP-92 = test system: HOP-92
UO-31 = test system: UO-31
786-0 = test system: 786-0
SK-MEL-28 = test system: SK-MEL-28
MCF7 = test system: MCF7
EKVX = test system: EKVX
NCI/ADR-RES = test system: NCI/ADR-RES
Hs-578T = test system: Hs-578T
OVCAR-4 = test system: OVCAR-4
PC-3 = test system: PC-3
DU-145 = test system: DU-145
OVCAR-3 = test system: OVCAR-3
IGROV-1 = test system: IGROV-1
SNB-19 = test system: SNB-19
KM12 = test system: KM12
HL-60 = test system: HL-60
SF-539 = test system: SF-539

For `O=C1c2ccccc2-c2ccc(/N=[N+](/[O-])c3ccc4c(c3)C(=O)c3ccccc3-4)cc21`, the GI50 (SW-620) was > 100 µM (inactive), the GI50 (UACC-257) was > 100 µM (inactive) and the GI50 (UACC-62) was > 100 µM (inactive). The GI50 (SF-295) was > 100 µM (inactive), the GI50 (MDA-N) was > 100 µM (inactive) and the GI50 (HCT-15) was greater than 100 µM. For the same molecule, the GI50 (RXF 393) was > 100 µM (inactive), the GI50 (NCI-H226) was > 100 µM (inactive) and the GI50 (NCI-H23) was > 100 µM (inactive). For the same molecule, the GI50 (LOX IMVI) was > 100 µM (inactive), the GI50 (A549) was > 100 µM (inactive) and the GI50 (OVCAR-5) was > 100 µM (inactive). The GI50 (HCT-116) was > 100 µM (inactive), the GI50 (SK-MEL-5) was > 100 µM (inactive) and the GI50 (MDA-MB-435) was > 100 µM (inactive). The GI50 (SF-268) was > 100 µM (inactive), the GI50 (SK-MEL-2) was > 100 µM (inactive) and the GI50 (OVCAR-8) was > 100 µM (inactive). For the same molecule, the GI50 (T47D) was > 100 µM (inactive), the GI50 (NCI-H522) was > 100 µM (inactive) and the GI50 (SNB-75) was > 100 µM (inactive). The GI50 (NCI-H460) was > 100 µM (inactive), the GI50 (CAKI-1) was > 100 µM (inactive) and the GI50 (SK-OV-3) was > 100 µM (inactive). For the same molecule, the GI50 (ACHN) was > 100 µM (inactive), the GI50 (BT-549) was > 100 µM (inactive) and the GI50 (RPMI-8226) was > 100 µM (inactive). The GI50 (Malme-3M) was > 100 µM (inactive), the GI50 (A498) was > 100 µM (inactive) and the GI50 (HOP-62) was 71.4 µM (inactive). The GI50 (K562) was > 100 µM (inactive), the GI50 (SN12C) was > 100 µM (inactive) and the GI50 (TK-10) was > 100 µM (inactive). For the same molecule, the GI50 (COLO 205) was > 100 µM (inactive), the GI50 (MDA-MB-231) was > 100 µM (inactive) and the GI50 (M14) was > 100 µM (inactive). The GI50 (U-251) was > 100 µM (inactive), the GI50 (CCRF-CEM) was > 100 µM (inactive) and the GI50 (MOLT-4) was > 100 µM (inactive). The GI50 (HCC 2998) was > 100 µM (inactive), the GI50 (HT-29) was > 100 µM (inactive) and the GI50 (HOP-92) was > 100 µM (inactive). For the same molecule, the GI50 (UO-31) was > 100 µM (inactive), the GI50 (786-0) was > 100 µM (inactive) and the GI50 (SK-MEL-28) was > 100 µM (inactive). For the same molecule, the GI50 (MCF7) was > 100 µM (inactive), the GI50 (EKVX) was > 100 µM (inactive) and the GI50 (NCI/ADR-RES) was > 100 µM (inactive). For the same molecule, the GI50 (Hs-578T) was > 100 µM (inactive), the GI50 (OVCAR-4) was > 100 µM (inactive) and the GI50 (PC-3) was > 100 µM (inactive). The GI50 (DU-145) was > 100 µM (inactive), the GI50 (OVCAR-3) was > 100 µM (inactive) and the GI50 (IGROV-1) was > 100 µM (inactive). The GI50 (SNB-19) was > 100 µM (inactive), the GI50 (KM12) was > 100 µM (inactive) and the GI50 (HL-60) was > 100 µM (inactive).

For `CCOC(=O)c1c(CN2CCNCC2)nc2ccccc2c1-c1ccccc1`, the GI50 (SW-620) was 17.1 µM (inactive), the GI50 (UACC-257) was 4.07 µM (inactive) and the GI50 (UACC-62) was 15 µM (inactive). For the same molecule, the GI50 (SF-295) was 15.1 µM (inactive), the GI50 (MDA-N) was 10.9 µM (inactive) and the GI50 (HCT-15) was 16.1 µM. For the same molecule, the GI50 (RXF 393) was 2.92 µM (inactive), the GI50 (NCI-H226) was 18.6 µM (inactive) and the GI50 (NCI-H23) was 18.7 µM (inactive). For the same molecule, the GI50 (LOX IMVI) was 15.8 µM (inactive), the GI50 (A549) was 16.7 µM (inactive) and the GI50 (OVCAR-5) was 16.8 µM (inactive). The GI50 (HCT-116) was 11.4 µM (inactive), the GI50 (SK-MEL-5) was 13.6 µM (inactive) and the GI50 (MDA-MB-435) was 14.3 µM (inactive). For the same molecule, the GI50 (SF-268) was 14 µM (inactive), the GI50 (SK-MEL-2) was 15.6 µM (inactive) and the GI50 (OVCAR-8) was 15.8 µM (inactive). For the same molecule, the GI50 (T47D) was 13.9 µM (inactive), the GI50 (NCI-H522) was 14.3 µM (inactive) and the GI50 (SNB-75) was 7.03 µM (inactive). The GI50 (NCI-H460) was 14.3 µM (inactive), the GI50 (CAKI-1) was 12.2 µM (inactive) and the GI50 (SK-OV-3) was 16.5 µM (inactive). For the same molecule, the GI50 (ACHN) was 16.8 µM (inactive), the GI50 (BT-549) was 17.2 µM (inactive) and the GI50 (RPMI-8226) was 14.4 µM (inactive). The GI50 (Malme-3M) was 10.2 µM (inactive), the GI50 (A498) was 14.6 µM (inactive) and the GI50 (HOP-62) was 16.9 µM (inactive). The GI50 (SF-539) was 16.8 µM (inactive), the GI50 (K562) was 12.6 µM (inactive) and the GI50 (SN12C) was 14.7 µM (inactive). The GI50 (TK-10) was 14.3 µM (inactive), the GI50 (COLO 205) was 14.3 µM (inactive) and the GI50 (MDA-MB-231) was 15.6 µM (inactive). The GI50 (M14) was 13.4 µM (inactive), the GI50 (U-251) was 14.3 µM (inactive) and the GI50 (CCRF-CEM) was 12.7 µM (inactive). The GI50 (MOLT-4) was 10.8 µM (inactive), the GI50 (HCC 2998) was 1.9 µM (inactive) and the GI50 (HT-29) was 5.41 µM (inactive). The GI50 (HOP-92) was 4.69 µM (inactive), the GI50 (UO-31) was 7.28 µM (inactive) and the GI50 (786-0) was 12.7 µM (inactive). The GI50 (SK-MEL-28) was 11.7 µM (inactive), the GI50 (MCF7) was 14.3 µM (inactive) and the GI50 (EKVX) was 15.5 µM (inactive). For the same molecule, the GI50 (NCI/ADR-RES) was 16.2 µM (inactive), the GI50 (Hs-578T) was 16.1 µM (inactive) and the GI50 (OVCAR-4) was 15 µM (inactive). The GI50 (PC-3) was 13.4 µM (inactive), the GI50 (DU-145) was 17.5 µM (inactive) and the GI50 (OVCAR-3) was 17.5 µM (inactive). For the same molecule, the GI50 (IGROV-1) was 15.3 µM (inactive), the GI50 (SNB-19) was 17.5 µM (inactive) and the GI50 (KM12) was 15.6 µM (inactive). The GI50 (HL-60) was 12.9 µM (inactive).
